Results on five compounds are retold here after patent US20260347409A1, “CHEMICALLY MODIFIED POLYPEPTIDE” (SUZHOU GLENKOL PHARMA TECHNOLOGY CO., LTD., priority 2023, published 2026).

Where a SMILES comes first, the peptide text is derived from it. Where no end group is shown, it is not given here. [ ]: non-standard residue; d: D form. NMeY = CN[C@@H](Cc1ccc(O)cc1)C(=O)O

The test system of series [1] is PC-12 cells. As to the kind of experiment: Cell viability of PC-12 neural cells under glutamate stimulation (excitotoxic cell death model, propidium iodide/Hoechst staining). The settings on record: for Normalized cell viability (%): 10 nM compound, 30 min pretreatment, then glutamate stimulation 24 h, normalized to positive control MK-801; for EC50: dose-response relationship in promoting the viability of PC-12 neurons, glutamate stimulation. The series is classed as cell-based, rat. On the procedure: 1.1. Culture of PC-12 Cell Line and Establishment of Excitotoxic Cell Death Model
PC-12 cells (a […] cell line derived from rat adrenal medulla) were cultured in DMEM/F12 complete medium until eaching 80-90% confluence. The cells were then digested, collected, resuspended, and seeded at density of 5×10^4 cells per well in a 24-well plate precoated with coverslips. Following 26 hours of cell culture, excitotoxic cell death was induced by glutamate stimulation. For model establishment: an appropriate amount of glutamate was weighed and dissolved in DMEM/F12 medium to prepare a stock solution. After filtration, the stock solution was diluted with culture medium and administered to the cells via medium replacement. The cells were further incubated for 24 hours after administration.
1.2 Administration of Small Molecules
Prior to glutamate modeling, cells incubated as described in the previous step were pretreated with 10 nM of the polypeptide compound according to the present application for 30 minutes, followed by glutamate stimulation.
1.3. Propidium Iodide Staining
Cells treated with the polypeptide compound according to the present application were stained with propidium iodide to assess cell death. After discarding the culture medium, the cells were washed with PBS, and propidium iodide/Hoechst was added. After incubating for 30 minutes, the cells were removed and the staining solution was discarded. After washing with PBS, the cells were fixed and mounted, and subjected to image acquisition under a fluorescence microscope. The number of propidium iodide-positive cells and Hoechst-positive cells in the acquired images was counted to calculate the cell viability. MK-801 was used as the positive control compound. The normalized cell viability was calculated using the following formula: (cell viability of the compound group −cell viability of the glutamate group)/(cell viability of the positive control group −cell viability of the glutamate group)×100%.
Based on the above dose-response studies of the compound, the inhibitory effects of different small-molecule compounds at the same dose (10 nM) against excitotoxic death in PC-12 neurons cells were further compared.
Based on this, the dose-response relationship of the neuroprotective effect of the polypeptide compounds according to the present application on PC-12 neural cells was analyzed.

Series [2] in a line: Pharmacokinetic characteristics in rats after intravenous administration (plasma, LC-MS/MS). The series is classed as in vivo. The settings on record: SD rats, intravenous (tail vein), 10 mg/kg; for MRT inf: rat. As for the experimental part:
Experimental Example 2: Pharmacokinetic Characteristics of Various Compounds in Rats
Intravenous administration: Three SD rats per group were administered the compounds of Example 1, Example 2, Example 3, Example 6, Example 7, Example 17, and Example 19 via the tail vein, respectively, at a dose of 10 mg/kg. all SD rats were allowed free access to food and water after administration. Plasma was collected 3 min, 10 min, 30 min, 1 h, 2 h, 6 h, 10 h, and 24 h after administration, with 3 rats per time point.
Sample processing: Whole blood was anticoagulated with EDTA-K2. Within 30 minutes of collection, the blood was centrifuged at 3000 g for 10 minutes at 2-8 °C. After centrifugation, the separated plasma was transferred to new 1.5 mL centrifuge tubes and stored at −80 °C.
Analytical method: The concentrations of each compounds in rat plasma were determined by LC-MS/MS using Shimadzu LC30AD and AB Sciex QTRAP 6500+instruments. The relevant pharmacokinetic parameters after administration were calculated.

As to `CN[C@@H](Cc1ccc(O)cc1)C(=O)NCC(=O)N[C@@H](CCCNC(=N)N)C(=O)N[C@@H](CCCCN)C(=O)N[C@@H](CCCCN)C(=O)N[C@@H](CCCNC(=N)N)C(=O)N[C@@H](CCCNC(=N)N)C(=O)N[C@@H](CCC(N)=O)C(=O)N[C@@H](CCCNC(=N)N)C(=O)N[C@@H](CCCNC(=N)N)C(=O)N[C@@H](CCCNC(=N)N)C(=O)N[C@@H](CCCCN)C(=O)N[C@@H](CCCCN)C(=O)N[C@@H](CC(N)=O)C(=O)N[C@@H](CCCNC(=N)N)C(=O)N[C@@H](CC(N)=O)C(=O)N[C@@H](CCCCN)C(=O)N[C@@H](CC(C)C)C(=O)N[C@@H](CCCNC(=N)N)C(=O)N[C@@H](CCCNC(=N)N)C(=O)N[C@@H](CCC(N)=O)C(=O)N[C@@H](Cc1c[nH]cn1)C(=O)N[C@@H](CO)C(=O)N[C@@H](Cc1ccc(O)cc1)C(=O)O` [Example 2] (H-[NMeY]GRKKRRQRRRKKNRNKLRRQHSY-OH), in series [1], the “Normalized cell viability (%)” value turned out to be 65.56% and the midpoint of the response, the EC50, lay at 12.6 nM. Also, in series [2], the “T1/2” value came out at 1.73 h, the “Vss” value was found to be 3.94 L/kg and the MRT inf came to 1.84 h.

Consider `CN[C@@H](Cc1ccc(O)cc1)C(=O)NCC(=O)N[C@@H](CCCNC(=N)N)C(=O)N[C@@H](CCCCN)C(=O)N[C@@H](CCCCN)C(=O)N[C@@H](CCCNC(=N)N)C(=O)N[C@@H](CCCNC(=N)N)C(=O)N[C@@H](CCC(=O)O)C(=O)N[C@@H](CCCNC(=N)N)C(=O)N[C@@H](CCCNC(=N)N)C(=O)N[C@@H](CCCNC(=N)N)C(=O)N[C@@H](CCCCN)C(=O)N[C@@H](CCCCN)C(=O)N[C@@H](CC(=O)O)C(=O)N[C@@H](CCCNC(=N)N)C(=O)N[C@@H](CC(=O)O)C(=O)N[C@@H](CCCCN)C(=O)N[C@@H](CC(C)C)C(=O)N[C@@H](CCCNC(=N)N)C(=O)N[C@@H](CCCNC(=N)N)C(=O)N[C@@H](CCC(=O)O)C(=O)N[C@@H](Cc1c[nH]cn1)C(=O)N[C@@H](CO)C(=O)N[C@@H](Cc1ccc(O)cc1)C(N)=O` [Example 19] (H-[NMeY]GRKKRRERRRKKDRDKLRREHSY-NH2), for which, in series [1], the “Normalized cell viability (%)” value was 87.71%. Also, in series [2], the “T1/2” value came to 1.16 h, the “Vss” value stood at 9.11 L/kg and the MRT inf came out at 1.73 h.

In the case of “Ac-YGRKKRRQRRRKKNRNKLRRQHSY-NH2 [Example 7]”, the EC50 in series [1] was 8.72 nM. For the same compound, in series [2], the “T1/2” value was found to be 1.51 h, the “Vss” value came out at 3.58 L/kg and the MRT inf came to 1.93 h.

With “YGRKKRRQRRRKKNRNKLRRQHSY [Example 1, reference compound]”, in series [1], the “Normalized cell viability (%)” value came out at 41.00% and a half-maximal response (EC50) required 23.6 nM. Also, in series [2], the “T1/2” value was found to be 0.76 h, the “Vss” value is on record as 1.29 L/kg and the MRT inf came out at 0.87 h.

Compound “YGRKKRRQRRRKKNRNKLRRQHSY-NH2 [Example 6]” returned an EC50 in series [1] of 13.5 nM. For the same compound, in series [2], the “T1/2” value was 1.23 h, the “Vss” value is 2.53 L/kg and the MRT inf was 1.65 h.

One may read the EC50 as the concentration at which the effect is half-maximal. The low end stands for greater potency, the high end for weaker potency. For orientation: Vss means the apparent volume that relates the amount in the body to the concentration in plasma or blood. Lower therefore signals confinement near the circulation. Broadly, the MRT inf is the average time that molecules of a dose stay in the body.
